The text below walks through data of paper PMC9338942, “(+)-Usnic acid and its salts, inhibitors of SARS‐CoV‐2, identified by using in silico methods and in vitro assay” (Scientific Reports, 2022).

One data set relates to vero cells. The following applies: for Cell number to mock (%): single concentration 10 μM; for CC50: vero cells.
Another data set is described as follows: in vitro. The following applies: African green monkey.
Data set [1] deals with SARS-CoV-2 (βCoV/Korea/KCDC/2020). Nature of the data set: microbe, parasite or virus in culture. To be noted: for IC50: vero cells, immunofluorescence; for inhibition at 10 µM: single concentration 10 μM, read-out: Inhibition of infection (%). It is filed as cell-based.
The subject of another data set is SARS-CoV-2 pseudovirions. To be noted: at 30 μM; cited from earlier work.
The test system of the next data set is SARS-CoV-2. The following applies: read-out: IC50, in vitro antiviral efficacy against SARS-CoV-2; cited from earlier work.
Data set [2] concerns COVID-19. Also noted: method as in PMID 34480861. To be noted: phase 3 clinical trial; cited from earlier work.
Data set [3] relates to COVID-19. Set-up: method as in PMID 33903855. To be noted: cited from earlier work.
The test system of a further data set is SARS-CoV. The following applies: mice, 30 mg/kg; cited from earlier work.
[4] abbreviates: CC50, vero cells, assay with Alpha var (B.1.1.7).
Where [5] appears, read: CC50, vero cells, assay with Beta var (B.1.351).
Where [6] appears, read: CC50, vero cells, assay with Delta var (B.1.617.2).
Setting [7] is: CC50, vero cells, assay with original SARS-CoV-2 strain.
The mark [8] stands for this setting: Severe acute respiratory syndrome coronavirus 2, original SARS-CoV-2 strain.
Where [9] appears, read: Severe acute respiratory syndrome coronavirus 2.
[10] abbreviates: assay with original SARS-CoV-2 strain.
Setting [11] is: assay with Delta var (B.1.617.2).

Read-outs that look alike come from different tables or passages of the source.

As to `CC(=O)c1c(O)c(C)c(O)c2c1OC1=CC(=O)C(C(C)=O)C(=O)[C@@]12C` (single isomer, unassigned; (+)) [(+)-usnic acid], the “Cell number to mock (%)” value with vero cells is on record as 94.69%. In addition, the CC50 in “in vitro” (setting [4]) was 34.8 µM; in the data set “in vitro” (setting [5]), 32.4 µM; in the data set “in vitro” (setting [6]) it was more than 50 µM; in the data set “in vitro” (setting [7]), more than 50 µM. The “SI (selectivity index)” value in data set [1] stood at 6.26. Also, 7.99 µM corresponded to half-maximal inhibition in data set [1] (setting [8]) (IC50). For the same compound, the inhibition at 10 µM in data set [1] (setting [9]) is 61.6%.

With `CCOC(=O)[C@H]1O[C@@H]1C(=O)N[C@@H](CC(C)C)C(=O)NCCC(C)C` [Aloxistatin], in the data set with SARS-CoV-2 pseudovirions, the “reduction of cell entry of SARS-CoV-2 pseudovirions” value was 92.5%.

On to `Cc1ccc(N)cc1C(=O)N[C@H](C)c1cccc2ccccc12` [GRL0617], for which, in the data set with SARS-CoV-2, the IC50 was 2.1 µM.

In the data set on vero cells (setting [10]), `CC(=O)C1=C(O)[C@]2(C)C(=CC1=O)Oc1c(C(C)=O)c(O)c(C)c(O)c12` [KU, potassium usnate] displayed a CC50 of more than 50 µM. This compound gave an IC50 in data set [1] (original SARS-CoV-2 strain) of 7.57 µM.

Take `COC1=CC(=O)[C@@]2(C)c3c(O)c(C)c(O)c(C(C)=O)c3O[C@@]2(OC)C1` [Mycousfuran A, (4aS,9bR)-6-acetyl-7,9-dihydroxy-3,4a-dimethoxy-8,9b-dimethyl-4H-dibenzofuran-1-one]: in the data set with vero cells, the “Cell number to mock (%)” value is 109.23%. Further, the inhibition at 10 µM in data set [1] (setting [9]) worked out at 0.96%.

With `CC(=O)C1=C(O)C=C2Oc3c(C(C)=O)c(O)c(C)c(O)c3[C@]2(C)C1=O` [NaU, sodium usnate], the CC50 in the data set on vero cells (setting [10]) is more than 50 µM. This compound also returned an IC50 in data set [1] (original SARS-CoV-2 strain) of 5.33 µM.

For the compound `C[C@]12C[C@@]34C=CC(=O)[C@@](C)(CCC(=O)Nc5c(O)ccc(C(=O)O)c5O)[C@@H]3[C@H](C[C@@H]1C4)O2` [Platensimycin, 3-[[3-[(1S,3S,4S,5aS,9S,9aR)-1,4,5,8,9,9a-Hexahydro-3,9-dimethyl-8-oxo-3H-1,4:3,5a-dimethano-2-benzoxepin-9-yl]-1-oxopropyl]amino]-2,4-dihydroxybenzoic acid], the “Cell number to mock (%)” value with vero cells is 109.23%. Moreover, in data set [1] (setting [9]), the inhibition at 10 µM worked out at 3.16%.

With `CO[C@H]1[C@H](O)[C@@H](O)[C@H](n2c3c(Cl)cccc3c3c4c(c5c6cccc(Cl)c6[nH]c5c32)C(=O)NC4=O)O[C@@H]1CO` [Rebeccamycin, 1,11-Dichloro-12,13-dihydro-12-(4-O-methyl-β-D-glucopyranosyl)-5H-indolo[2,3-a]pyrrolo[3,4-c]carbazole-5,7(6H)-dione], in the data set with vero cells, the “Cell number to mock (%)” value is given as 72.32%. For the same compound, the inhibition at 10 µM in data set [1] (setting [9]) was determined as 10.6%.

As to `CCS(=O)(=O)N1CC(CC#N)(n2cc(-c3ncnc4[nH]ccc34)cn2)C1` [barcitinib, Barcitinib], the “reduction of 28-day mortality rate compared to placebo” value in the data set with COVID-19 [2] is given as 38.2%.

For the compound `CN(C)C(=O)COC(=O)Cc1ccc(OC(=O)c2ccc(NC(=N)N)cc2)cc1` [camostat mesilate], in the data set with COVID-19 [3], the “efficacy in clinical trials for the treatment of COVID-19” value was “did not show any particular efficacy”. The survival level entry in the data set on SARS-CoV was “above 60%”.

Regarding `CCN(CC)CCCC(C)Nc1ccnc2cc(Cl)ccc12` (centres unmarked) [chloroquine], the CC50 in the data set with vero cells (assay with Beta var (B.1.351)), in the data set on vero cells (setting [11]) and in “in vitro” was more than 150 µM in each case. The IC50 in data set [1] (setting [8]) turned out to be 11.5 µM.

Regarding `Cc1cccc(C)c1OCC(=O)N[C@@H](Cc1ccccc1)[C@@H](O)C[C@H](Cc1ccccc1)NC(=O)[C@H](C(C)C)N1CCCNC1=O` [lopinavir], the CC50 in the data set “in vitro” (setting [4]) was more than 50 µM; in the data set “in vitro” (setting [5]), more than 50 µM; in “in vitro” (setting [6]), more than 50 µM; in the data set “in vitro” (setting [7]), more than 150 µM. The “SI (selectivity index)” value in data set [1] is recorded as 4.24. The compound also showed an IC50 in data set [1] (setting [8]) of 11.8 µM.

As for `CCC(CC)COC(=O)[C@H](C)N[P@](=O)(OC[C@H]1O[C@@](C#N)(c2ccc3c(N)ncnn23)[C@H](O)[C@@H]1O)Oc1ccccc1` [remdesivir], the CC50 in the data set with vero cells (assay with Beta var (B.1.351)), with vero cells (setting [11]) and in “in vitro” was more than 50 µM each time. Besides, the IC50 in data set [1] (setting [8]) came to 7.42 µM. Moreover, the “SI (selectivity index)” value in data set [1] (original SARS-CoV-2 strain) is 6.74.
